This note sets out measurements from patent publication US4048167A, “N,N-disubstituted derivatives of 3-carboxamide or 3-thiocarboxamide-7-(3-chloro-2-propenyl)-1,3,5,7-tetraazabicyclo(3.3.1) nonane and preparation II” (The Dow Chemical Company, priority 1976, dated 1977).

Usually MIC stands for the least concentration at which growth counts as inhibited.

Converted amounts (≈) assume the structure as drawn.

Format in all cases: cell-based
In one assay the test system is A. aerogenes. Nature of the assay: agar Petri dish dilution test, A. aerogenes. The following applies: Klebsiella aerogenes.
The test system of the next assay is E. coli. Nature of the assay: agar Petri dish dilution test, E. coli. The following applies: Escherichia coli.
The subject of assay [1] is Pseudomas Species Str. 10. Nature of the assay: agar Petri dish dilution test, Pseudomas Species Str. 10. The following applies: read-out: MIC, Ps.
The test system of a further assay is mentagrophytes. Briefly: agar Petri dish dilution test, mentagrophytes.
In another assay the test system is M. phlei. Briefly: agar Petri dish dilution test, M. phlei. To be noted: Mycolicibacterium phlei.
Another assay concerns S. aureus. Nature of the assay: agar Petri dish dilution test, S. aureus. To be noted: Staphylococcus aureus.
Another assay deals with B. subtilis. Briefly: agar Petri dish dilution test, B. subtilis. The following applies: Bacillus subtilis.

As for `CN(C)C(=O)N1CN2CN(C/C=C\Cl)CN(C2)C1` [Example 1, N,N-Dimethyl-3-Carboxamide-7-cis-(3-Chloro-2-Propenyl)-1,3,5,7-Tetraazabicyclo(3.3.1)Nonane], the MIC with A. aerogenes is 100 µg/mL (≈ 365 µM); with E. coli, 500 µg/mL (≈ 1830 µM); in assay [1], 500 µg/mL (≈ 1830 µM); in the assay on mentagrophytes it was 100 µg/mL (≈ 365 µM); against M. phlei, 500 µg/mL (≈ 1830 µM); in the assay on S. aureus, 500 µg/mL (≈ 1830 µM). This compound showed an MIC in the assay with B. subtilis of 100 µg/mL (≈ 365 µM).

Regarding `CCN(CC)C(=O)N1CN2CN(C/C=C\Cl)CN(C2)C1` [Example 2 a.], the MIC was 100 µg/mL (≈ 331 µM) in the assay with A. aerogenes; 100 µg/mL (≈ 331 µM) with E. coli; 100 µg/mL (≈ 331 µM) with mentagrophytes; 500 µg/mL (≈ 1660 µM) against M. phlei; 500 µg/mL (≈ 1660 µM) against S. aureus; 100 µg/mL (≈ 331 µM) against B. subtilis.

Regarding `O=C(N1CN2CN(C/C=C\Cl)CN(C2)C1)N(c1ccccc1)c1ccccc1` [Example 2 b.], the MIC in the assay with A. aerogenes is 500 µg/mL (≈ 1260 µM); with E. coli, 500 µg/mL (≈ 1260 µM); in assay [1], 500 µg/mL (≈ 1260 µM); against mentagrophytes it was 100 µg/mL (≈ 251 µM); against M. phlei, 500 µg/mL (≈ 1260 µM); in the assay with S. aureus it was 500 µg/mL (≈ 1260 µM). Moreover, inhibition of growth against B. subtilis (MIC) required 500 µg/mL (≈ 1260 µM).

Take `CN(C(=O)N1CN2CN(C/C=C\Cl)CN(C2)C1)c1ccccc1` [Example 2 c.]: the MIC with A. aerogenes turned out to be 500 µg/mL (≈ 1490 µM); in the assay with E. coli it was 500 µg/mL (≈ 1490 µM); in assay [1] it was 500 µg/mL (≈ 1490 µM); in the assay with mentagrophytes it was 100 µg/mL (≈ 298 µM); in the assay with M. phlei it was 500 µg/mL (≈ 1490 µM); against S. aureus, 500 µg/mL (≈ 1490 µM). This compound came in with an MIC with B. subtilis of 500 µg/mL (≈ 1490 µM).

Take `CN(C)C(=S)N1CN2CN(C/C=C\Cl)CN(C2)C1` [Example 2 d.]: the MIC with A. aerogenes was 500 µg/mL (≈ 1730 µM); against E. coli it was 500 µg/mL (≈ 1730 µM); in assay [1] it was 500 µg/mL (≈ 1730 µM); in the assay with mentagrophytes, 100 µg/mL (≈ 345 µM); against M. phlei, 500 µg/mL (≈ 1730 µM); in the assay with S. aureus it was 500 µg/mL (≈ 1730 µM). Besides, it took 100 µg/mL (≈ 345 µM) to inhibit growth in the assay with B. subtilis (MIC).
